Assay results taken from ChEMBL document CHEMBL1759854, “Inhibitors of the tyrosine kinase EphB4. Part 4: Discovery and optimization of a benzylic alcohol series” (Bioorg Med Chem Lett, 2011).
Each block holds one compound with its values, some of them ahead of it.

Key:
[1] = physchem; settings: octanol/water
[2] = system: Canis familiaris; assay: Clearance in Beagle dog assessed as liver blood flow at 2 umol/kg, iv and 5 umol/kg, po; type: ADME, organism-based, Canis lupus familiaris; settings: in vivo
[3] = Oral bioavailability in Beagle dog at 5 umol/kg, po; type: ADME, organism-based, Canis lupus familiaris; settings: in vivo
[4] = Volume of distribution at steady state in Beagle dog at 2 umol/kg, iv and 5 umol/kg, po; type: ADME, organism-based, Canis lupus familiaris; settings: in vivo, read-out: Vdss
[5] = Volume of distribution at steady state in Han Wistar rat at 1 or 2.5 µmol/kg, iv and 5 or 10 µmol/kg, po; settings: in vivo, read-out: Vdss
[6] = Oral bioavailability in Han Wistar rat at 5 or 10 µmol/kg, po; settings: in vivo
[7] = system: Rattus norvegicus; assay: Clearance in Han Wistar rat assessed as liver blood flow at 1 or 2.5 µmol/kg, iv and 5 or 10 µmol/kg, po; settings: in vivo
[8] = AUC in nude mouse at 200 umol/kg, po; type: ADME, organism-based; settings: plasma
[9] = AUC in nude mouse at 100 umol/kg, po; type: ADME, organism-based; settings: plasma
[10] = Cmax in nude mouse at 10 umol/kg, po; type: ADME, organism-based; parameters: dose 10 umol/kg, route oral; settings: in vivo
[11] = AUC in nude mouse at 10 umol/kg, po; type: ADME, organism-based; settings: plasma
[12] = Cmax in nude mouse at 200 umol/kg, po; type: ADME, organism-based; parameters: dose 200 umol/kg, route oral; settings: in vivo
[13] = Cmax in nude mouse at 100 umol/kg, po; type: ADME, organism-based; parameters: dose 100 umol/kg, route oral; settings: in vivo

- logD [1]: 3
Compound: Cc1ccc(CO)cc1N(C)c1ccnc(Nc2cc(CN3CCOCC3)cc(N3CCOCC3)c2)n1

- logD [1]: 2.2
Compound: Cc1ccc(CO)cc1N(C)c1ccnc(Nc2cc(C(=O)N3CCOCC3)cc(N3CCOCC3)c2)n1

- logD [1]: 3.4
Compound: Cc1ccc(CO)cc1N(c1ccnc(Nc2cc(N3CCOCC3)cc(S(C)(=O)=O)c2)n1)C(C)C

- logD [1]: 3.8
Compound: CCN(c1ccnc(Nc2cc(N3CCOCC3)cc(N3CCOCC3)c2)n1)c1cc(CO)ccc1C

- logD [1]: 2.8
Compound: COCCN(c1ccnc(Nc2cc(N3CCOCC3)cc(N3CCOCC3)c2)n1)c1cc(CO)ccc1C

- logD [1]: 3.9
Compound: COc1cc(Nc2nccc(N(C)c3cc(CO)ccc3C)n2)cc(N2CCOCC2)c1

- logD [1]: 3.7
Compound: Cc1ccc(CO)cc1N(C)c1ccnc(Nc2cc(OC3CCOCC3)cc(N3CCOCC3)c2)n1

- logD [1]: 2.8
Compound: Cc1ccc(CO)cc1N(C)c1ccnc(Nc2cc(N3CCOCC3)cc(N3CCN(O)CC3)c2)n1

- logD [1]: 4.2
Compound: Cc1ccc(CO)cc1N(C)c1ccnc(Nc2cc(N3CCCCC3)cc(N3CCOCC3)c2)n1

- LBF [2]: 57%
- bioavailability [3]: 22%
- logD [1]: 3.4
- Vd [4]: 1.6 L/kg
- Vd [5]: 0.7 L/kg
- bioavailability [6]: 64%
- LBF [7]: 9%
Compound: Cc1ccc(CO)cc1N(C)c1ccnc(Nc2cc(N3CCOCC3)nc(N3CCOCC3)c2)n1

- logD [1]: 3.9
Compound: Cc1ccc(CO)cc1N(C)c1ccnc(Nc2cc(N3CCOCC3)nc(N3CCOCC3)n2)n1

- Vd [5]: 0.4 L/kg
- bioavailability [6]: 17%
- LBF [7]: 16%
Compound: Cc1ccc(CO)cc1N(C)c1ccnc(Nc2cc(N3CCOCC3)cc(S(C)(=O)=O)c2)n1

- logD [1]: 3.3
Compound: Cc1ccc(CO)cc1N(C)c1ccnc(Nc2cc(N3CCCOCC3)cc(N3CCOCC3)c2)n1

- logD [1]: 3.3
Compound: COCCOc1cc(Nc2nccc(N(C)c3cc(CO)ccc3C)n2)cc(N2CCOCC2)c1

- logD [1]: 3.8
Compound: Cc1ccc(CO)cc1N(C)c1ccnc(Nc2cc(N3CCCC3)cc(N3CCOCC3)c2)n1

- LBF [2]: 51%
- bioavailability [3]: 58%
- logD [1]: 3.1
- Vd [4]: 2.1 L/kg
- AUC [8]: 155 µM·h
- AUC [9]: 63 µM·h
- Vd [5]: 0.5 L/kg
- Cmax [10]: 1.9 µM
- AUC [11]: 1.6 µM·h
- Cmax [12]: 17 µM
- Cmax [13]: 15 µM
- bioavailability [6]: 78%
- LBF [7]: 11%
Compound: Cc1ccc(CO)cc1N(C)c1ccnc(Nc2cc(N3CCOCC3)cc(N3CCOCC3)c2)n1
